SMILES	melting point [°C]
CCc1nc2c(cnn2CC)c(NC2CCOCC2)c1CNC(=O)c1cccc(C(=O)NCc2ccc(C)c(-c3cccc(CN4CC(C)NC(C)C4)c3)c2)c1 (stereo not drawn)	109 to 112
O=C(NC(=O)C(c1ccccc1)c1ccccc1)C1CC1	178
CCCCCCCCCCCCCCCCCCOc1cccc(NCC(=O)O)c1	92
CN1Cc2c(-c3noc(CN4CCCC(C)(C)C4)n3)ncn2-c2ccccc2C1=O	167 to 168
C=Cc1cc(Br)c(Br)cc1Br	64
C=C(C)c1ccc(C(C)(c2ccc(C(=C)C)cc2)c2ccc(C(=C)C)cc2)cc1	28
CC(=O)NCCC1=C(C(C)C)Cc2ccc3nc(C)oc3c21	135 to 138
COc1cc(-c2cn(C3CCCC3)c3ncnc(N)c23)ccc1NS(=O)(=O)c1ccccc1	113 to 115
CCCCNC(=O)c1ccc(S(=O)(=O)NCCCC)o1	69.4
OC1CSC(Oc2cncc(-c3nccs3)c2)C(O)C1O (stereo not drawn)	204
Cn1cc(C(=O)NCc2ccc(Cl)cc2)c(=O)c2cc(CN3CCOCC3)cc(C#CCN3CCS(=O)(=O)CC3)c21	220 to 222
CCCCn1c(C)c(C(=O)NC2CCN(CCc3ccccc3)CC2)c2cc(O)ccc21	178 to 181
COC(=O)Cc1cc(O)nn1C	147 to 148
ClCc1nc(Cl)c2ccccc2n1	99 to 101
CC1(O)CC(=O)OC(C=Cc2ccc(OCc3ccccc3)cc2)C1 (stereo not drawn)	155 to 156
COc1c(C)c(Cl)c(C)c(Cl)c1CNC(=O)CCl	205 to 206
Cc1cc(C(c2ccc(C(c3ccc(O)c(C)c3)c3ccc(O)c(C)c3)cc2)c2ccc(O)c(C)c2)ccc1O	195
CCc1nc(-c2ccco2)c2ncn(Cc3ccc(OC)cc3)c2n1	119 to 120
C=Cc1c(C(=O)OC)nc(Cl)c(Cl)c1N	96 to 97
COc1ccccc1Sc1c(Cl)ncnc1NS(=O)(=O)c1ccc(C(C)(C)C)cc1	186
COCCN(C)Cc1ccnc2c(NC(=O)c3c(Cl)cccc3Cl)cccc12	128 to 134
CCOCc1c(-c2ccccc2)oc2c(C(=O)NCCCN3CCN(c4ccccc4OC)CC3)cccc2c1=O	129 to 133
COc1ccc2ccc3c(c2c1)CCC(=O)O3	100 to 101
COC(=O)NNC(=S)Cc1ccc(C)cc1	104 to 105

SMILES	melting point [°C]
COc1cc2c3ccc(OC)c(OC)c3n(C(=O)c3ccc(C(C)(C)C)cc3)c2cc1OC	129 to 131
O=C(O)c1ccc(CNC(=O)C2Cc3ccccc3N2S(=O)(=O)c2ccc(-c3cccc(C(F)(F)F)c3)cc2)c(Cl)c1 (stereo not drawn)	110 to 120
COc1ccc(-c2c(Cl)c(CN3C(=O)c4ccccc4C3=O)nc3sc4c(c23)CCS(=O)(=O)C4)cc1	298 to 299
CN1CCN(Cc2ccccc2Cl)C(C(=O)NCCCl)C1 (stereo not drawn)	74 to 75
O=C(Nc1ccc(N2CCCC2)nc1)c1cc2ccc(C(F)(F)F)nc2n1Cc1cccc(F)c1	204 to 205
CCOC(=O)C(NC(=O)CI)C(=O)OCC	95 to 97
Cc1cc2ncc(Nc3ccc(Br)cc3)nc2cc1C	235
O=C(O)COc1ccc(SCc2cc(-c3ccc(C(F)(F)F)cc3)on2)c2c1CCCC2	167 to 170
CCCS(=O)(=O)c1ncc(C(F)(F)F)cc1Cl	41 to 42
COc1ccc(CNc2nnc(NCCCO)c3ccc(C#N)cc23)cc1Cl	132 to 135
CCc1cccc(C)c1N1C(=O)CCN(CC)C1=S	74 to 77
COC(=O)c1c(Sc2ccc(OC)cc2)nc(C(=O)c2ccccc2)n1Cc1cc2c(cc1Cl)OCO2	166
Clc1nc2ccc(Br)cc2cc1Cc1ccccc1	102 to 104
CCOC(=O)CCc1cn(Cc2ccc(OCc3cn4c(Cl)cccc4n3)cc2)nc1OCC	69 to 70
CCOC(=O)c1ccc(SC)cc1C(=O)OCC	178 to 181
Cc1cc(=O)oc2cccc(SC(=O)N(C)C)c12	129
CNC(=O)CN(CCN(CCN(CC(=O)O)CC(=O)NC)CC(=O)O)CC(=O)O	78 to 82
NS(=O)(=O)Cc1ccc(NCC(=O)N2CCC(Oc3ccc(Cl)cc3)CC2)cc1	180 to 187
COc1ccc2c(c1)cc(-c1nc(C)no1)n2-c1ccc(CNC(=O)C2(NC(=O)OC(C)(C)C)CC2)cc1	212 to 214
CCOC(=O)Cc1c([N+](=O)[O-])cc(O)c2ccccc12	96 to 100
Cc1cc(C)c2cccc(OCc3c(Cl)ccc(S(=O)(=O)N4CCC[C@H]4C(=O)NCc4ccc(C=NN)cn4)c3Cl)c2n1	128 to 130
OCC1(CN(Cc2ccccc2)Cc2ccccc2)CCN(Cc2ccccc2)C1 (stereo not drawn)	65 to 67
CCOC1C(NC(=O)C(F)(F)F)CC(OC(=O)c2ccc([N+](=O)[O-])cc2)OC1C (stereo not drawn)	148 to 150
N#Cc1n[nH]c2ccccc12	138 to 140

Reference: a melting point compilation (Tetko et al.; mined from patent text by program, amines drawn as free bases though some values may be those of a salt)
